Literature values in US6583130B1, “C13-substituted estra-1,3,5,(10)-trien-3-yl sulfamates, methods of preparing same, and pharmaceutical compositions containing these compounds” (Schering AG, priority 1999, dated 2003).

Key:
sulfatase = molecular target: T1, sulfatase (Homo sapiens, UniProt P08842); settings: as described in the cited literature
T1 sequence (P08842 22-583): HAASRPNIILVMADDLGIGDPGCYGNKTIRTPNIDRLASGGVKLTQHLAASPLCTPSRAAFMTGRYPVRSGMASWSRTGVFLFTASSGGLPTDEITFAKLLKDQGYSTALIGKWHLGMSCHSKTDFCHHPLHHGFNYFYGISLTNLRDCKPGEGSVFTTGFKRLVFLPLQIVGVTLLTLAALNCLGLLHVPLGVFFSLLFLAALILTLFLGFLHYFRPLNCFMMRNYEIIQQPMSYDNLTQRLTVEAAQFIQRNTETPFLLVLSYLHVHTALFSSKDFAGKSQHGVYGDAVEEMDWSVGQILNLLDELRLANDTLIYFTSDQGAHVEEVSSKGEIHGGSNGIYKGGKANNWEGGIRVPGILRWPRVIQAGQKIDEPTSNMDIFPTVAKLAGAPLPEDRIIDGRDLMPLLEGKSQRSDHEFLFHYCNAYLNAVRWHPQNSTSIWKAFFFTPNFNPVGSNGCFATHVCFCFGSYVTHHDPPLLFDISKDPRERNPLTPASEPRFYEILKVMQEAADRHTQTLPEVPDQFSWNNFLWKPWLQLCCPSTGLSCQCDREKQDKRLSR

uterine growth = settings: ovariectomized rats; Purohit et al. 1998
estrogenic effect = settings: as described in the cited literature (Elger et al. 1995; WO 97/14712)

| sulfatase inhibition (sulfatase) | SMILES | estrogenic effect on uterine growth (uterine growth) | estrogenic effect (estrogenic effect) |
| --- | --- | --- | --- |
| potent sulfatase inhibitor | COc1cc2c(cc1OS(N)(=O)=O)CC[C@@H]1[C@@H]2CC[C@]2(C)C(=O)CC[C@@H]12 [2-methoxyestrone 3-O-sulfamate] | does not exhibit any estrogenic effect | – |
| sulfatase inhibitor | CC(=O)NS(=O)(=O)Oc1ccc2c(c1)CC[C@@H]1[C@@H]2CC[C@]2(C)C(=O)CC[C@@H]12 [N-acetylestrone 3-O-sulfamate] | – | strong estrogenic effect |

| SMILES | sulfatase inhibition (sulfatase) | estrogenic effect on uterine growth (uterine growth) | estrogenic effect (estrogenic effect) |
| --- | --- | --- | --- |
| C[C@]12CC[C@@H]3c4ccc(OS(N)(=O)=O)cc4CC[C@H]3[C@@H]1CCC2=O [estrone 3-O-sulfamate] | strong sulfatase inhibitor | – | strong estrogenic effect |
